Among the data in patent US5298652A, “N-substituted glycines, inhibitors of phospholipase A2” (Hoffmann-La Roche Inc., priority 1992, dated 1994) are inhibition in vivo values, retold here.

Each structure is given as a SMILES string.

The test system of this assay is paw edema induced by phospholipase A2 from Naja naja venom. As to the kind of experiment: Phospholipase A2 rat paw edema. It is filed as in vivo, Lewis rats. The note with it: 30 mg/kg ip, 1 hr prior to PLA2, 2 hr, read-out: % Inhib of PLA2 Paw Edema 2 hr 30 mg/kg ip.
For the compound `CCCCCCCCCCOc1cc(OCCCCCCCCCC)cc(C(=O)N(CC(=O)O)CC(=O)O)c1` [Example 11, N-(Carboxymethyl)-N-[3,5-bis(decyloxy)benzoyl]glycine], the inhibition in vivo at 30 mg/kg turned out to be 0%.

As for `CCCCCCCCCCCCCCCCCCOc1ccc(C(=O)C(=O)N(CC(=O)O)CC(=O)O)cc1` [Example 65, N-(Carboxymethyl)-N-[2-[4-(octadecyloxy)phenyl]-1,2-dioxoethyl]glycine], the inhibition in vivo at 30 mg/kg amounted to 71%.

On to `CCCCCCCCCCCCCCCCCCOc1ccc(O)c(C(=O)N(CC(=O)O)CC(=O)O)c1` [Example 62, N-(carboxymethyl)-N-[2-hydroxy-5-(octadecyloxy)benzoyl]glycine], for which the inhibition in vivo at 30 mg/kg came out at 60%.

Regarding `CCCCCCCCCCOc1cc(OCCCCCCCCCC)cc(C(=O)C(=O)N(CC(=O)O)CC(=O)O)c1` [Example 73, N-(Carboxymethyl)-N-[[3,5-bis(decyloxy)phenyl]-1,2-dioxoethyl]glycine], the inhibition in vivo at 30 mg/kg turned out to be 32%.

For the compound `CCCCCCCCCCCCCCCCCCOc1cc(OCCCOc2cccc(N)c2)cc(C(=O)N(CC(=O)O)CC(=O)O)c1` [Example 23, N-(Carboxymethyl)-N-[3-[3-(3-aminophenoxy)propoxy]-5-(octadecyloxy)benzoyl]glycine], the inhibition in vivo at 30 mg/kg stood at 40%.

Turning to `CCCCCCCCCCCCCC(=O)Nc1cc(NC(=O)CCCCCCCCCCCCC)cc(C(=O)N(CC(=O)O)CC(=O)O)c1` [Example 56, N-(Carboxymethyl)-N-[3,5-bis(1-oxotetradecylamino)benzoyl]glycine], the inhibition in vivo at 30 mg/kg worked out at 57%.

On to `CCCCCCCCCCCCCCCCCCOc1cc(OCCOCCOCCOCC)cc(C(=O)N(CC(=O)O)CC(=O)O)c1` [Example 48, N-(carboxymethyl)-N-[3-[2-[2-(2-ethoxyethoxy)ethoxy]ethoxy]-(5-octadecyloxy)benzoyl]glycine], for which the inhibition in vivo at 30 mg/kg worked out at 43%.

As for `CCCCCCCCCCCCCCCCCCOc1cccc(C(=O)N(CC(=O)O)CC(=O)O)c1` [Example 4, N-(Carboxymethyl)-N-[3-(octadecyloxy)benzoyl]glycine], the inhibition in vivo at 30 mg/kg is 35%.

On to `CCCCCCCCCCCCCCCCCCOc1cc(OCCCOc2cccc([N+](=O)[O-])c2)cc(C(=O)N(CC(=O)O)CC(=O)O)c1` [Example 22, N-(Carboxymethyl)-N-[3-[3-(3-nitrophenoxy)propoxy]-5-(octadecyloxy)benzoyl]glycine], for which the inhibition in vivo at 30 mg/kg was determined as 64%.
